Data on 40 compounds can be found in ChEMBL document CHEMBL1138378, “Halogenation of 4-hydroxy-3-methoxybenzyl thiourea TRPV1 agonists showed enhanced antagonism to capsaicin” (Bioorg Med Chem Lett, 2007).

Test [1] concerns the target T1, Transient receptor potential cation channel subfamily V member 1 (Rattus norvegicus, UniProt O35433). Description: Displacement of [3H]RTX from rat TRPV1 expressed in CHO cells. It is filed as cell-based.
Test [2] has as its target Transient receptor potential cation channel subfamily V member 1 (Rattus norvegicus) (UniProt O35433). Description: (§1) Antagonist activity at rat TRPV1 expressed in CHO cells assessed as inhibition of calcium uptake. The class given is functional, cell-based. Further details: concentration or dose not given beside the values. To be noted: concentration not given here.
For test [3] the target is unchanged. Description: Agonist activity at rat TRPV1 expressed in CHO cells assessed as maximal calcium uptake relative to capsaicin. It is filed as functional, cell-based.
The target of test [4] is T1, Transient receptor potential cation channel subfamily V member 1. Described as §1. The class given is functional, cell-based.
The target is the same in test [5]. As to the kind of experiment: Agonist activity at rat TRPV1 expressed in CHO cells assessed as maximal calcium uptake. The class given is functional, cell-based.

T1 sequence (O35433 whole entry): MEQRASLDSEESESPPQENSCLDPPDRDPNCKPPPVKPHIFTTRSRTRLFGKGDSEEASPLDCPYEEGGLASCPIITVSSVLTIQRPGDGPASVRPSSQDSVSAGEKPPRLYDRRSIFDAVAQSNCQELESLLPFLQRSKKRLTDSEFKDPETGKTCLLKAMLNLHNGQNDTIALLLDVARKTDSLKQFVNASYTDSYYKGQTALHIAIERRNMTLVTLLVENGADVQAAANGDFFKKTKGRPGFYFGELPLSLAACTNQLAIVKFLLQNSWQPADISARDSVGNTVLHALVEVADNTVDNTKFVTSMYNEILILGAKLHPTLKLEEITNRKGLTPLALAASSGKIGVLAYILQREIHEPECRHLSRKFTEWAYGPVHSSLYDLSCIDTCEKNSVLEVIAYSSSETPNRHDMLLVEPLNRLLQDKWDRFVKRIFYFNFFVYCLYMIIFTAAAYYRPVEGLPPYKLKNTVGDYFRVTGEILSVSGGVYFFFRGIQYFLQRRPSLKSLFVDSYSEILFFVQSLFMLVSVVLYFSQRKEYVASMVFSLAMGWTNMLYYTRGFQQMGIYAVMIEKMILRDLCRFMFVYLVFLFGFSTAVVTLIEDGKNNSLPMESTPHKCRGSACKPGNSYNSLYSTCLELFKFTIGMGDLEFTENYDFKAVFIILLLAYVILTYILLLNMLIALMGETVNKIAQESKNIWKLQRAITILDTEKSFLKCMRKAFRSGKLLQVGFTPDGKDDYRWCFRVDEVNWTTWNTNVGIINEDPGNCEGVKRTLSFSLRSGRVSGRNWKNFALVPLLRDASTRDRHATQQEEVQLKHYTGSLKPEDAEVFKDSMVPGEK
Sequence of Transient receptor potential cation channel subfamily V member 1 (Rattus norvegicus) (O35433 whole entry): as above

As usually defined, the Ki is a dissociation constant, usually derived from enzyme kinetics or from competition with a known ligand. The inhibition is the percentage by which the read-out fell short of the control. As to `COc1cc(CNC(=S)NCC(COC(=O)C(C)(C)C)Cc2ccc(C(C)(C)C)cc2)c(Cl)cc1O` (configuration not stated), in test [1], the affinity corresponds to a Ki of 0.0122 µM. The inhibition in test [2] amounted to 71%. For the same compound, the Activity in test [3] was found to be 24%.
On to `COc1cc(CNC(=S)NCC(COC(=O)C(C)(C)C)Cc2ccc(C)c(C)c2)c(I)cc1O` (configuration not stated), for which the Ki is 0.0189 µM in test [1] and 0.0231 µM in test [4].
Regarding `COc1cc(CNC(=S)NC(CCc2ccc(C)c(C)c2)COC(=O)C(C)(C)C)c(Br)cc1O` (configuration not stated), the affinity in test [1] corresponds to a Ki of 0.109 µM. In addition, in test [2], the inhibition came out at 75%. Also, in test [3], the Activity was determined as 13%.
By EC50 is commonly meant the concentration needed to bring the measured effect to its halfway point. As for `COc1cc(CNC(=S)NC(COC(=O)C(C)(C)C)Cc2ccc(C(C)(C)C)cc2)cc(Cl)c1O` (configuration not stated), the affinity in test [1], expressed as Ki, was 0.0288 µM. Also, in test [5], the EC50 came out at 0.06 µM.
On to `COc1cc(CNC(=S)NC(CCc2ccc(C(C)(C)C)cc2)COC(=O)C(C)(C)C)ccc1O` (configuration not stated), for which the Ki in test [1] is 0.0365 µM. The EC50 in test [5] came out at 0.0215 µM.
On to `COc1cc(CNC(=S)NC(COC(=O)C(C)(C)C)Cc2ccc(C(C)(C)C)cc2)cc(I)c1O` (configuration not stated), for which the Ki worked out at 0.0394 µM in test [1] and 0.178 µM in test [4].
The matching figures for `COc1cc(CNC(=S)NCc2ccc(C(C)(C)C)cc2)cc(I)c1O`: 0.342 µM and 0.176 µM.
Consider `COc1cc(CNC(=S)NC(CCc2ccc(C(C)(C)C)cc2)COC(=O)C(C)(C)C)cc(I)c1O` (configuration not stated), for which the Ki in test [1] stood at 0.214 µM; in test [4], 0.525 µM.
Take `COc1cc(CNC(=S)NCc2ccc(C(C)(C)C)cc2)ccc1O`: affinity in test [1] was put at a Ki of 0.0586 µM. Moreover, the EC50 in test [5] was found to be 0.0025 µM.
`COc1cc(CNC(=S)NC(CCc2ccc(C)c(C)c2)COC(=O)C(C)(C)C)cc(I)c1O` (configuration not stated): the inhibitory constant (Ki) came out at 0.127 µM in test [1] and 0.115 µM in test [4].
Turning to `COc1cc(CNC(=S)NC(COC(=O)C(C)(C)C)Cc2ccc(C(C)(C)C)cc2)cc(Br)c1O` (configuration not stated), the Ki in test [1] stood at 0.0382 µM. Besides, in test [2], the inhibition stood at 29%. In test [3], the Activity is 57%.
Turning to `COc1cc(CNC(=S)NCC(COC(=O)C(C)(C)C)Cc2ccc(C(C)(C)C)cc2)c(Br)cc1O` (configuration not stated), the Ki in test [1] amounted to 0.0128 µM; in test [4] it was 0.055 µM.
In the same order, the values of `COc1cc(CNC(=S)NCC(COC(=O)C(C)(C)C)Cc2ccc(C)c(C)c2)cc(I)c1O` (configuration not stated) are 0.232 µM and 0.121 µM.
Regarding `COc1cc(CNC(=S)NCC(COC(=O)C(C)(C)C)Cc2ccc(C(C)(C)C)cc2)c(I)cc1O` (configuration not stated), the Ki in test [1] was 0.0133 µM; in test [4], 0.071 µM.
With `COc1cc(CNC(=S)NCC(COC(=O)C(C)(C)C)Cc2ccc(C(C)(C)C)cc2)cc(Cl)c1O` (configuration not stated), the Ki in test [1] was determined as 0.0213 µM. In addition, the inhibition in test [2] came to 37%. In addition, in test [3], the Activity was 49%.
In the case of `COc1cc(CNC(=S)NCc2ccc(C(C)(C)C)cc2)c(Br)cc1O`, the values for the Ki in test [1] and in test [4] were 0.0421 µM and 0.0303 µM, respectively.
As to `COc1cc(CNC(=S)NCc2ccc(C(C)(C)C)cc2)cc(Br)c1O`, the Ki was determined as 0.0516 µM in test [1] and 0.049 µM in test [4].
The compound `COc1cc(CNC(=S)NCC(COC(=O)C(C)(C)C)Cc2ccc(C)c(C)c2)cc(Br)c1O` (configuration not stated) came in with a Ki in test [1] of 0.0331 µM. Moreover, in test [2], the inhibition turned out to be 70%. Besides, in test [3], the Activity came to 29%.
Consider `COc1cc(CNC(=S)NCc2ccc(C(C)(C)C)cc2)c(Cl)cc1O`, for which the affinity in test [1], expressed as Ki, was 0.0369 µM. Besides, the inhibition in test [2] worked out at 81%. For the same compound, in test [3], the Activity was 33%.
`COc1cc(CNC(=S)NC(CCc2ccc(C(C)(C)C)cc2)COC(=O)C(C)(C)C)c(I)cc1O` (configuration not stated): the Ki in test [1] is 0.079 µM; in test [4], 0.069 µM.
For the compound `COc1cc(CNC(=S)NC(CCc2ccc(C(C)(C)C)cc2)COC(=O)C(C)(C)C)cc(Br)c1O` (configuration not stated), in test [1], the affinity corresponds to a Ki of 0.143 µM. Moreover, the inhibition in test [2] was determined as 73%. The Activity in test [3] came out at 19%.
Turning to `COc1cc(CNC(=S)NC(COC(=O)C(C)(C)C)Cc2ccc(C(C)(C)C)cc2)c(Br)cc1O` (configuration not stated), the Ki in test [1] turned out to be 0.0749 µM. Also, in test [2], the inhibition was determined as 51%. Moreover, the Activity in test [3] turned out to be 41%.
For `COc1cc(CNC(=S)NCc2ccc(C(C)(C)C)cc2)c(I)cc1O`, the Ki was determined as 0.13 µM in test [1] and 0.156 µM in test [4].
For the compound `COc1cc(CNC(=S)NC(COC(=O)C(C)(C)C)Cc2ccc(C(C)(C)C)cc2)c(Cl)cc1O` (configuration not stated), in test [1], the Ki was 0.0415 µM. For the same compound, in test [2], the inhibition was determined as 11%. Moreover, the Activity in test [3] was 94%.
Regarding `COc1cc(CNC(=S)NC(CCc2ccc(C)c(C)c2)COC(=O)C(C)(C)C)ccc1O` (configuration not stated), in test [1], affinity was put at a Ki of 0.056 µM. Besides, the EC50 in test [5] is 0.0147 µM.
In the case of `COc1cc(CNC(=S)NCC(COC(=O)C(C)(C)C)Cc2ccc(C(C)(C)C)cc2)cc(I)c1O` (configuration not stated), the Ki in test [1] turned out to be 0.045 µM; in test [4], 0.103 µM.
Turning to `COc1cc(CNC(=S)NC(CCc2ccc(C(C)(C)C)cc2)COC(=O)C(C)(C)C)c(Cl)cc1O` (configuration not stated), the Ki in test [1] turned out to be 0.079 µM; in test [4], 0.0722 µM.
Consider `COc1cc(CNC(=S)NC(CCc2ccc(C)c(C)c2)COC(=O)C(C)(C)C)cc(Cl)c1O` (configuration not stated), for which, in test [1], the affinity corresponds to a Ki of 0.086 µM. Besides, the inhibition in test [2] was 16%. For the same compound, the Activity in test [3] was determined as 88%.
`COc1cc(CNC(=S)NC(CCc2ccc(C)c(C)c2)COC(=O)C(C)(C)C)c(Cl)cc1O` (configuration not stated): the Ki in test [1] was determined as 0.103 µM. In test [2], the inhibition amounted to 45%. Further, the Activity in test [3] came out at 60%.
In turn, `COc1cc(CNC(=S)NCc2ccc(C(C)(C)C)cc2)cc(Cl)c1O` came in with a Ki in test [1] of 0.076 µM. Further, the inhibition in test [2] amounted to 92%. In addition, the Activity in test [3] was found to be 5%.
The compound `COc1cc(CNC(=S)NCC(COC(=O)C(C)(C)C)Cc2ccc(C(C)(C)C)cc2)cc(Br)c1O` (configuration not stated) registered a Ki in test [1] of 0.0188 µM. For the same compound, in test [2], the inhibition is 85%. In addition, in test [3], the Activity amounted to 9%.
For `COc1cc(CNC(=S)NC(COC(=O)C(C)(C)C)Cc2ccc(C(C)(C)C)cc2)c(I)cc1O` (configuration not stated), the Ki in test [1] was determined as 0.096 µM; in test [4], 0.31 µM.
In the same order, the values of `COc1cc(CNC(=S)NC(CCc2ccc(C)c(C)c2)COC(=O)C(C)(C)C)c(I)cc1O` (configuration not stated) are 0.14 µM and 0.176 µM.
`CCCCCCCCC(=O)NCc1cc(OC)c(O)cc1I`: the Ki in test [1] amounted to 1.32 µM; in test [4], 0.127 µM.
Compound `COc1cc(CNC(=S)NCC(COC(=O)C(C)(C)C)Cc2ccc(C)c(C)c2)c(Cl)cc1O` (configuration not stated) had a Ki in test [1] of 0.0242 µM. Moreover, in test [2], the inhibition was 41%. Also, the Activity in test [3] worked out at 63%.
`COc1cc(CNC(=S)NC(CCc2ccc(C(C)(C)C)cc2)COC(=O)C(C)(C)C)c(Br)cc1O` (configuration not stated): the Ki in test [1] was 0.075 µM; in test [4], 0.0761 µM.
Regarding `COc1cc(CNC(=S)NCC(COC(=O)C(C)(C)C)Cc2ccc(C)c(C)c2)cc(Cl)c1O` (configuration not stated), in test [1], the affinity, expressed as Ki, was 0.0309 µM. Moreover, the Activity in test [3] amounted to 93%.
As for `COc1cc(CNC(=S)NCC(COC(=O)C(C)(C)C)Cc2ccc(C)c(C)c2)c(Br)cc1O` (configuration not stated), in test [1], the Ki was determined as 0.0199 µM. In test [2], the inhibition came out at 91%. Moreover, in test [3], the Activity stood at 13%.
In the same order, the values of `COc1cc(CNC(=S)NC(CCc2ccc(C(C)(C)C)cc2)COC(=O)C(C)(C)C)cc(Cl)c1O` (configuration not stated) are 0.122 µM, 47% and 44%.
In test [1], `COc1cc(CNC(=S)NC(CCc2ccc(C)c(C)c2)COC(=O)C(C)(C)C)cc(Br)c1O` (configuration not stated) returned a Ki of 0.102 µM. In test [2], the inhibition amounted to 59%. For the same compound, in test [3], the Activity was found to be 50%.
